This experiment concerns IL-10. The experiment can be described thus: Measurement of IL-10 increase rate (LPS-induced inflammation in mice, serum IL-10 by ELISA). The class given is in vivo. Particulars: Mus musculus, 2 h, oral 100 mg/kg in 0.5% methyl cellulose, LPS 0.4 mg/kg i.p. one hour later, serum taken one hour after LPS, % control ratio vs 0.5% methyl cellulose group, read-out: IL10 Increase Rate (%). How it is done:
A test substance was suspended in a 0.5% (w/v) methyl cellulose and orally administered to mice at a dose of 100 mg/kg. One hour later, a lipopolysaccharide (LPS, Sigma-Aldrich, L2630 (trade name)) (0.4 mg/kg) was intraperitoneally administered to induce inflammation. One hour after administration of LPS, blood was taken from the vena cava under anesthesia with isoflurane, placed in a tube containing a serum separating agent, allowed to stand still at room temperature for 20-30 minutes and centrifuged at 4° C. at 12,000 rpm for 5 minutes to obtain the serum. Thereafter, the amount of the IL-10 in the serum was measured by using Mouse IL-10 Quantikine ELISA Kit (R&D systems, M1000B (trade name)) or Mouse IL-10 Immunoassay kit (PerkinElmer, AL502 (trade name)) in accordance with the protocol of the kit. The serum was diluted 10 times with the dilution solution contained in the kit and put in use. IL-10 increase rate (% control ratio) of the compound was calculated in accordance with the following expression: IL-10 increase rate (% control ratio) (IL10 amount in compound administration group)×100/(IL-10 amount in 0.5% (w/v) methyl cellulose administration group)
(In an ELISA, binding on a coated surface is turned into a signal by an enzyme label.)
For `Cn1c(COc2cc(C(F)(F)F)ccn2)nnc1[C@H]1CC[C@H](c2cnn([C@H]3CC[C@H](N4CCC5(COC5)C4)CC3)c2)CC1` [Example 26, 6-[trans-4-(4-{trans-4-[4-Methyl-5-({[4-(trifluoromethyl)pyridin-2-yl]oxy}methyl)-4H-1,2,4-triazol-3-yl]cyclohexyl}-1H-pyrazol-1-yl)cyclohexyl]-2-oxa-6-azaspiro[3.4]octane], the response vs control in vivo at 100 mg/kg is 231%.
For `CC(C)c1cccc(OCc2nnc(-c3ccc(-n4cc(C5CCN(C)CC5)nn4)cn3)n2C)c1` [Example 2, 5-[4-(1-Methylpiperidin-4-yl)-1H-1,2,3-triazol-1-yl]-2-(4-methyl-5-{[3-(propan-2-yl)phenoxy]methyl}-4H-1,2,4-triazol-3-yl)pyridine], the response vs control in vivo at 100 mg/kg is 220%.
In the case of `CC(C)c1cccc(O[C@H](C)c2nnc([C@H]3CC[C@H](n4cc([C@@H]5CC[C@@H](N(C)C)CO5)nn4)CC3)n2C)c1` [Example 8, (3R,6S)—N,N-Dimethyl-6-{1-[trans-4-(4-methyl-5-{(1R)-1-[3-(propan-2-yl)phenoxy]ethyl}-4H-1,2,4-triazol-3-yl)cyclohexyl]-1H-1,2,3-triazol-4-yl}tetrahydro-2H-pyran-3-amine], the response vs control in vivo at 100 mg/kg came to 197%.
Consider `CN(C)C12CCC(c3cn([C@H]4CC[C@H](c5nnc(COc6cccc(C(F)(F)F)c6)n5C)CC4)nn3)(CC1)CC2` [Example 11, N,N-Dimethyl-4-{1-[trans-4-(4-methyl-5-{[3-(trifluoromethyl)phenoxy]methyl}-4H-1,2,4-triazol-3-yl)cyclohexyl]-1H-1,2,3-triazol-4-yl}bicyclo[2.2.2]octan-1-amine], for which the response vs control in vivo at 100 mg/kg worked out at 180%.
Turning to `Cn1c(COc2cc(C(F)(F)F)ccn2)nnc1[C@H]1CC[C@H](c2cn([C@H]3CC[C@H](N4CC(CF)C4)CC3)nn2)CC1` [Example 20, 2-({5-[trans-4-(1-{trans-4-[3-(Fluoromethyl)azetidin-1-yl]cyclohexyl}-1H-1,2,3-triazol-4-yl)cyclohexyl]-4-methyl-4H-1,2,4-triazol-3-yl}methoxy)-4-(trifluoromethyl)pyridine], the response vs control in vivo at 100 mg/kg turned out to be 176%.
Take `CC(C)c1cccc(OCc2nnc([C@H]3CC[C@H](n4cc(C5(F)CCN(C)CC5)nn4)CC3)n2C)c1` [Example 3, 4-Fluoro-1-methyl-4-{1-[trans-4-(4-methyl-5-{[3-(propan-2-yl)phenoxy]methyl}-4H-1,2,4-triazol-3-yl)cyclohexyl]-1H-1,2,3-triazol-4-yl}piperidine]: the response vs control in vivo at 100 mg/kg is 179%.
With `CN1CCC(F)(c2cn([C@H]3CC[C@H](c4nnc(COc5ccc(Cl)c(C(F)(F)F)c5)n4C)CC3)nn2)CC1` [Example 5, 4-{1-[trans-4-(5-{[4-Chloro-3-(trifluoromethyl)phenoxy]methyl}-4-methyl-4H-1,2,4-triazol-3-yl)cyclohexyl]-1H-1,2,3-triazol-4-yl}-4-fluoro-1-methylpiperidine], the response vs control in vivo at 100 mg/kg is 206%.
For the molecule `CC(C)c1cccc(OCc2nnc([C@@H]3CC[C@@H](n4cc(C5(F)CCN(C)CC5)nn4)CO3)n2C)c1` [Example 13, 4-Fluoro-1-methyl-4-{1-[(3R,6S)-6-(4-methyl-5-{[3-(propan-2-yl)phenoxy]methyl}-4H-1,2,4-triazol-3-yl)tetrahydro-2H-pyran-3-yl]-1H-1,2,3-triazol-4-yl}piperidine], the response vs control in vivo at 100 mg/kg is 156%.
As to `CN(C)C12CC(c3cn([C@H]4CC[C@H](c5nnc(COc6cccc(C(F)(F)F)c6)n5C)CC4)nn3)(C1)C2` [Example 12, N,N-Dimethyl-3-{1-[trans-4-(4-methyl-5-{[3-(trifluoromethyl)phenoxy]methyl}-4H-1,2,4-triazol-3-yl)cyclohexyl]-1H-1,2,3-triazol-4-yl}bicyclo[1.1.1]pentan-1-amine], the response vs control in vivo at 100 mg/kg came to 177%.
`COC(=O)c1cccc(OCc2nnc([C@H]3CC[C@H](c4cnn([C@H]5CC[C@H](N6CCC6)CC5)c4)CC3)n2C)c1` [Example 30, Methyl 3-{[5-(trans-4-{1-[trans-4-(azetidin-1-yl)cyclohexyl]-1H-pyrazol-4-yl}cyclohexyl)-4-methyl-4H-1,2,4-triazol-3-yl]methoxy}benzoate]: the response vs control in vivo at 100 mg/kg was found to be 141%.
As for `CN1CCC(c2cn(-c3ccc(-c4nnc(COc5cccc(C(F)(F)F)c5)n4C)cc3)nn2)CC1` [Example 1, 1-Methyl-4-{1-[4-(4-methyl-5-{[3-(trifluoromethyl)phenoxy]methyl}-4H-1,2,4-triazol-3-yl)phenyl]-1H-1,2,3-triazol-4-yl}piperidine], the response vs control in vivo at 100 mg/kg was found to be 146%.
Turning to `CN1CCC(F)(c2cn([C@H]3CC[C@H](c4nnc5n4CCCC5Oc4cccc(C(F)(F)F)c4)CC3)nn2)CC1` (stereo partly drawn) [Example 15, 3-{trans-4-[4-(4-Fluoro-1-methylpiperidin-4-yl)-1H-1,2,3-triazol-1-yl]cyclohexyl}-8-[3-(trifluoromethyl)phenoxy]-5,6,7,8-tetrahydro[1,2,4]triazolo[4,3-a]pyridine], the response vs control in vivo at 100 mg/kg is 227%.
Then `Cn1c(COc2cccc(Cl)c2)nnc1[C@H]1CC[C@H](c2cc([C@@H]3CC[C@@H](N4CCC4)CO3)on2)CC1` [Example 35, 3-(trans-4-{5-[(2S,5R)-5-(Azetidin-1-yl)tetrahydro-2H-pyran-2-yl]-1,2-oxazol-3-yl}cyclohexyl)-5-[(3-chlorophenoxy)methyl]-4-methyl-4H-1,2,4-triazole], with 184%; and `COC(=O)c1cccc(OCc2nnc([C@H]3CC[C@H](c4cnn([C@H]5CC[C@H](N6CC7(COC7)C6)CC5)c4)CC3)n2C)c1` [Example 31, Methyl 3-{[4-methyl-5-(trans-4-{1-[trans-4-(2-oxa-6-azaspiro[3.3]hept-6-yl)cyclohexyl]-1H-pyrazol-4-yl}cyclohexyl)-4H-1,2,4-triazol-3-yl]methoxy}benzoate], with 222%.
As for `Cn1c(COc2cccc(C(F)(F)F)c2)nnc1[C@H]1CC[C@H](n2cc(C34CCC(CN5CCC5)(CC3)CC4)nn2)CC1` [Example 10, 4-[4-(Azetidin-1-ylmethyl)bicyclo[2.2.2]oct-1-yl]-1-[trans-4-(4-methyl-5-{[3-(trifluoromethyl)phenoxy]methyl}-4H-1,2,4-triazol-3-yl)cyclohexyl]-1H-1,2,3-triazole], the response vs control in vivo at 100 mg/kg turned out to be 390%.
Regarding `Cn1c(COc2cccc(C(F)(F)F)c2)nnc1[C@H]1CC[C@H](c2cnn([C@@H]3CC[C@@H](CN4CCC4)OC3)c2)CC1` [Example 22, 1,5-Anhydro-6-azetidin-1-yl-2,3,4,6-tetradeoxy-2-{4-[trans-4-(4-methyl-5-{[3-(trifluoromethyl)phenoxy]methyl}-4H-1,2,4-triazol-3-yl)cyclohexyl]-1H-pyrazol-1-yl}-D-erythro-hexitol], the response vs control in vivo at 100 mg/kg was 113%.
For `Cn1c(COc2cccc(C(F)(F)F)c2)nnc1[C@H]1CC[C@H](n2cc([C@H]3CC[C@H](N4CCC4)CC3)cn2)CC1` [Example 17, 3-(trans-4-{4-[trans-4-(Azetidin-1-yl)cyclohexyl]-1H-pyrazol-1-yl}cyclohexyl)-4-methyl-5-{[3-(trifluoromethyl)phenoxy]methyl}-4H-1,2,4-triazole], the response vs control in vivo at 100 mg/kg is 334%.
Consider `CC(C)c1cccc(OCc2nnc([C@H]3CC[C@H](n4cc(-c5ccc([C@@H](C)N6CCC6)cc5)nn4)CC3)n2C)c1` [Example 6, 4-{4-[(1R)-1-(Azetidin-1-yl)ethyl]phenyl}-1-[trans-4-(4-methyl-5-{[3-(propan-2-yl)phenoxy]methyl}-4H-1,2,4-triazol-3-yl)cyclohexyl]-1H-1,2,3-triazole], for which the response vs control in vivo at 100 mg/kg was determined as 243%.
Regarding `Cn1c(COc2cc(C(F)(F)F)ccn2)nnc1[C@H]1CC[C@H](c2cnn([C@H]3CC[C@H](N4CC(CO)(CO)C4)CC3)c2)CC1` [Example 29, {1-[trans-4-(4-{trans-4-[4-Methyl-5-({[4-(trifluoromethyl)pyridin-2-yl]oxy}methyl)-4H-1,2,4-triazol-3-yl]cyclohexyl}-1H-pyrazol-1-yl)cyclohexyl]azetidine-3,3-diyl}dimethanol], the response vs control in vivo at 100 mg/kg was found to be 111%.
For the molecule `CN1CCC(c2cn(-c3ccc(-c4nnc(COc5cccc(C(F)(F)F)c5)n4C)cc3)cn2)CC1` [Example 18, 1-Methyl-4-{1-[4-(4-methyl-5-{[3-(trifluoromethyl)phenoxy]methyl}-4H-1,2,4-triazol-3-yl)phenyl]-1H-imidazol-4-yl}piperidine], the response vs control in vivo at 100 mg/kg amounted to 157%.
With `CN(C)C12CCC(c3cn([C@H]4CC[C@H](c5nnc(COc6cccc(C(F)(F)F)c6)n5C)CC4)nn3)(CC1)OC2` [Example 9, N,N-Dimethyl-1-{1-[trans-4-(4-methyl-5-{[3-(trifluoromethyl)phenoxy]methyl}-4H-1,2,4-triazol-3-yl)cyclohexyl]-1H-1,2,3-triazol-4-yl}-2-oxabicyclo[2.2.2]octan-4-amine], the response vs control in vivo at 100 mg/kg is 182%.
As for `CC(C)c1cccc(CC2OCCn3c2nnc3[C@H]2CC[C@H](n3cc(C4(F)CCN(C)CC4)nn3)CC2)c1` (stereo partly drawn) [Example 14, 3-{trans-4-[4-(4-Fluoro-1-methylpiperidin-4-yl)-1H-1,2,3-triazol-1-yl]cyclohexyl}-8-[3-(propan-2-yl)benzyl]-5,6-dihydro-8H-[1,2,4]triazolo[3,4-c][1,4]oxazine], the response vs control in vivo at 100 mg/kg turned out to be 216%.
